The values below are quoted from earlier work in patent US20030224036A1, “Hla class I a2 tumor associated antigen peptides and vaccine compositions” (priority 1999, published 2003).

The data set concerns PBMC of cervical cancer patients.

“aKXVAAWTLKAAa-NH2 [PADRE, a=D-alanine, X=cyclohexylalanine]”: where the note is “95% interval 10-65%”, the responding patients is reported as 33%. For the same substance, for the setting “recurrent or residual cervical carcinoma”, the safety in patients entry is listed as “favorable safety profile”.
